In publication PMC10705946, “^225Ac-iPSMA-RGD for Alpha-Therapy Dual Targeting of Stromal/Tumor Cell PSMA and Integrins” (International Journal of Molecular Sciences, 2023):

Tested on: HCT116 colorectal cancer cells
Assay: Cellular uptake and internalization, with blocked receptor assay
Format: cell-based, human
Method: The ^225Ac-iPSMA-RGD uptake was performed on HCT116, C6 and PC3 cell lines, which were selected based on their variable PSMA and RGD expression according to previous research by our group and others. Each cell line was diluted to 1 × 10^6 cells with 1 mL of PBS in tubes and incubated at 37 °C with 30 μL of ^225Ac-iPSMA-RGD (20 μL, 70 Bq) for 0.5 h, 1 h and 3 h (n = 6). At each time point, the tubes were centrifuged at 3000 rpm for 5 min and rinsed twice with PBS. The measured activity in a NaI(Tl) well-type detector in the pellet, represents the uptake and internalization. To remove the ^225Ac-iPSMA-RGD at the cell membrane level, 1 mL of 0.2 M CH3COOH /0.5 M NaCl was added and the pellet was resuspended. The tubes were then centrifuged and washed with PBS twice (this activity is considered internalization).

N=C(N)NCCC[C@@H]1NC(=O)[C@H](CCCCNC(=O)CCCN2C(=O)CC(SC[C@H](NC(=O)c3ccc(NNC(=S)Nc4ccc(CC5CN(CC(=O)O)CCN(CC(=O)O)CCN(CC(=O)O)CCN(CC(=O)O)CCN(CC(=O)O)CCN5CC(=O)O)cc4)nc3)C(=O)N[C@@H](Cc3ccc4ccccc4c3)C(=O)NCCCC[C@H](NC(=O)N[C@@H](CCC(=O)O)C(=O)O)C(=O)O)C2=O)NC(=O)[C@@H](Cc2ccccc2)NC(=O)[C@H](CC(=O)O)NC(=O)CNC1=O (some centres unmarked) [^225Ac-iPSMA-RGD, ^225Ac-HEHA-HYNIC-iPSMA-RGD, metal not drawn]
Uptake and internalization, blocked vs unblocked cell receptors (HCT116 cells, blocking with unlabeled 1 mM iPSMA, RGD and iPSMA-RGD): statistically significant difference between blocked and unblocked cell receptors | Radiopharmaceutical uptake in colorectal cancer cells compared to C6 and PC3 cells (HCT116 vs C6 and PC3 cells): significantly higher
